Results taken from patent US20230340011A1 (Asteroid Therapeutics, priority 2022, published 2023).
pEC50, pIC50: −log10 of the molar value.

Tests used:
SREBP-2 = SREBP-2 (Homo sapiens (Human), UniProt Q12772); test: In vitro assay SREBP-2: PathHunter U2OS SREBP-2 Nuclear Translocation Cell Line, U18666A-stimulated; format: cell-based; details: PathHunter U2OS SREBP-2 nuclear translocation cells, U18666A 10 μM, overnight (16 hours)
LXRβ = LXRβ (Homo sapiens (Human), UniProt P55055); test: In vitro assay LXRβ: PathHunter NHR CHO cells, LXRβ / Steroid Receptor Co-activator Peptide enzyme fragment complementation; format: cell-based; details: PathHunter NHR CHO cells, full-length human LXRβ and SRCP, chemiluminescent signal; read-out: LXRβ PPI
Chain of LXRβ (P55055 whole entry, the tested form may be a part): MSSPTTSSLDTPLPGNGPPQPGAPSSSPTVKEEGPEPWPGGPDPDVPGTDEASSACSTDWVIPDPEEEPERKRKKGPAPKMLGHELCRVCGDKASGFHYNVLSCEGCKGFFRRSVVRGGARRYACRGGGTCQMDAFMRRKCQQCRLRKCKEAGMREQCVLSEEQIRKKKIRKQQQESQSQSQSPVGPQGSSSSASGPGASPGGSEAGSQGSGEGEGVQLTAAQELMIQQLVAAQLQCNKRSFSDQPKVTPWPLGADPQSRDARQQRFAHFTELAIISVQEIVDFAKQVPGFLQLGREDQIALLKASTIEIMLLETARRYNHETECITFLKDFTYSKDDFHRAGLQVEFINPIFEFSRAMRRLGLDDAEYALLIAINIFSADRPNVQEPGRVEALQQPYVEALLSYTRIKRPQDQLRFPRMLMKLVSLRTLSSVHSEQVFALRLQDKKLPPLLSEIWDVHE
Summary of the method: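 Co-activator recruitment measured by chemiluminescence after signal generation. The CHO line carries full-length human LXRβ tagged with ProLink and an SRCP–enzyme acceptor fusion in the nucleus; cells sat overnight at 37° C before testing, in charcoal-dextran filtered serum medium with 1% final vehicle.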

| Structure (SMILES) | pIC50 (SREBP-2) | pEC50 (LXRβ) |
| --- | --- | --- |
| C[C@H](CCC(=O)N1CCN(C(=O)C(C)(C)O)C[C@@H]1C)[C@H]1CC[C@H]2[C@@H]3CC=C4C[C@@H](O)CC[C@]4(C)[C@H]3CC[C@]12C [Example 653, (R)-4-((3S,8S,9S,10R,13R,14S,17R)-3-hydroxy-10,13-dimethyl-2,3,4,7,8,9,10,11,12,13,14,15,16,17-tetradecahydro-1H-cyclopenta[a]phenanthren-17-yl)-1-((S)-4-(2-hydroxy-2-methylpropanoyl)-2-methylpiperazin-1-yl)pentan-1-one] | > 6.60 | < 5.00 |
| C[C@H](CCC(=O)N1CCN(C(=O)N2CCCC2)[C@@H](C)C1)[C@H]1CC[C@H]2[C@@H]3CC=C4C[C@@H](O)CC[C@]4(C)[C@H]3CC[C@]12C [Example 654, (4R)-4-[(1R,3aS,3bS,7S,9aR,9bS,11aR)-7-hydroxy-9a,11a-dimethyl-1H,2H,3H,3aH,3bH,4H,6H,7H,8H,9H,9aH,9bH,10H,11H,11aH-cyclopenta[a]phenanthren-1-yl]-1-[(3 S)-3-methyl-4-(pyrrolidine-1-carbonyl)piperazin-1-yl]pentan-1-one] | > 6.60 | < 5.00 |
| C[C@H](CCC(=O)N1CCN(C(=O)N2CCCC2)C[C@@H]1C)[C@H]1CC[C@H]2[C@@H]3CC=C4C[C@@H](O)CC[C@]4(C)[C@H]3CC[C@]12C [Example 655, (R)-4-((3S,8S,9S,10R,13R,14S,17R)-3-hydroxy-10,13-dimethyl-2,3,4,7,8,9,10,11,12,13,14,15,16,17-tetradecahydro-1H-cyclopenta[a]phenanthren-17-yl)-1-((S)-2-methyl-4-(pyrrolidine-1-carbonyl)piperazin-1-yl)pentan-1-one] | > 6.60 | < 5.00 |
| C[C@H](CCC(=O)N1CCN(c2cnn(C)c2)[C@@H](C)C1)[C@H]1CC[C@H]2[C@@H]3CC=C4C[C@@H](O)CC[C@]4(C)[C@H]3CC[C@]12C [Example 656, (R)-4-((3S,8S,9S,10R,13R,14S,17R)-3-hydroxy-10,13-dimethyl-2,3,4,7,8,9,10,11,12,13,14,15,16,17-tetradecahydro-1H-cyclopenta[a]phenanthren-17-yl)-1-((S)-3-methyl-4-(1-methyl-1H-pyrazol-4-yl)piperazin-1-yl)pentan-1-one] | > 6.60 | < 5.00 |
| COc1ccnc(N2CCN(C(=O)CC[C@@H](C)[C@H]3CC[C@H]4[C@@H]5CC=C6C[C@@H](O)CC[C@]6(C)[C@H]5CC[C@]34C)CC2)c1 [Example 657, (R)-4-((3S,8S,9S,10R,13R,14S,17R)-3-hydroxy-10,13-dimethyl-2,3,4,7,8,9,10,11,12,13,14,15,16,17-tetradecahydro-1H-cyclopenta[a]phenanthren-17-yl)-1-(4-(4-methoxypyridin-2-yl)piperazin-1-yl)pentan-1-one] | > 6.60 | < 5.00 |
| Cc1ccnc(N2CCN(C(=O)CC[C@@H](C)[C@H]3CC[C@H]4[C@@H]5CC=C6C[C@@H](O)CC[C@]6(C)[C@H]5CC[C@]34C)CC2)c1 [Example 658, (R)-4-((3S,8S,9S,10R,13R,14S,17R)-3-hydroxy-10,13-dimethyl-2,3,4,7,8,9,10,11,12,13,14,15,16,17-tetradecahydro-1H-cyclopenta[a]phenanthren-17-yl)-1-(4-(4-methylpyridin-2-yl)piperazin-1-yl)pentan-1-one] | > 6.60 | < 5.00 |
| COc1cccc(N2CCN(C(=O)CC[C@@H](C)[C@H]3CC[C@H]4[C@@H]5CC=C6C[C@@H](O)CC[C@]6(C)[C@H]5CC[C@]34C)CC2)n1 [Example 659, (R)-4-((3S,8S,9S,10R,13R,14S,17R)-3-hydroxy-10,13-dimethyl-2,3,4,7,8,9,10,11,12,13,14,15,16,17-tetradecahydro-1H-cyclopenta[a]phenanthren-17-yl)-1-(4-(6-methoxypyridin-2-yl)piperazin-1-yl)pentan-1-one] | > 6.60 | < 5.00 |
